# Experimental data: ChEMBL document CHEMBL1127353, “Nonpeptidic inhibitors of human leukocyte elastase. 2. Design, synthesis, and in vitro activity of a series of 3-amino-6-arylopyridin-2-one trifluoromethyl ketones” (J Med Chem, 1994)
# Biological target: T1, Neutrophil elastase (Homo sapiens, UniProt P08246)
# T1 sequence (P08246 whole entry): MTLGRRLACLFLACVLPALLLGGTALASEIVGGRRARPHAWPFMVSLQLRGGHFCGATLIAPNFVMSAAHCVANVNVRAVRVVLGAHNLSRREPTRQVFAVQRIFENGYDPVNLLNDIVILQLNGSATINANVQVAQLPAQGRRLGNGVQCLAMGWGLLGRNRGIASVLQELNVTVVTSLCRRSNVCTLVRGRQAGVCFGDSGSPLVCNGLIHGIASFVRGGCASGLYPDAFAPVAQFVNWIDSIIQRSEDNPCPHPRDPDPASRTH
# Experiment: Tested for inhibitory activity against human leukocyte elastase(HLE) enzyme
row,Structure (SMILES),Ki
1,CC(C)C(NC(=O)Cn1c(Cc2ccccc2)ccc(NC(=O)OCc2ccccc2)c1=O)C(=O)C(F)(F)F (stereo not drawn),66 nM
2,CC(C)C(NC(=O)Cn1ccc(-c2ccccc2)c(NC(=O)OCc2ccccc2)c1=O)C(=O)C(F)(F)F (stereo not drawn),320 nM
3,CC(C)C(NC(=O)Cn1c(-c2cccc(C(=O)O)c2)ccc(NC(=O)OCc2ccccc2)c1=O)C(=O)C(F)(F)F (stereo not drawn),32 nM
4,Cc1ccc(-c2ccc(NC(=O)OCc3ccccc3)c(=O)n2CC(=O)NC(C(=O)C(F)(F)F)C(C)C)cc1 (stereo not drawn),31 nM

# Stronger by Ki, values ahead:
row,Ki,Structure (SMILES)
1,4.4 nM,CC(C)C(NC(=O)Cn1c(-c2cccc(OC(C)(C)C)c2)ccc(NC(=O)OCc2ccccc2)c1=O)C(=O)C(F)(F)F (stereo not drawn)
2,6.6 nM,CC(C)C(NC(=O)Cn1c(-c2ccc(Cl)cc2)ccc(NC(=O)OCc2ccccc2)c1=O)C(=O)C(F)(F)F (stereo not drawn)
3,9.1 nM,CC(C)C(NC(=O)Cn1c(-c2cccnc2)ccc(NC(=O)OCc2ccccc2)c1=O)C(=O)C(F)(F)F (stereo not drawn)
4,11 nM,CC(C)C(NC(=O)Cn1c(-c2ccccc2Cl)ccc(NC(=O)OCc2ccccc2)c1=O)C(=O)C(F)(F)F (stereo not drawn)
